{
  "source": "patent US20240150362A1",
  "about": "“Substituted Pyrrolotriazines” (Molecure S.A., priority 2022, published 2024)",
  "target": "T1, full-length USP7 (Homo sapiens, UniProt Q93009)",
  "T1 construct": "A 45 μl reaction volume containing full-length USP7 (0.5-1.0 nM)",
  "T1 sequence (Q93009 whole entry)": "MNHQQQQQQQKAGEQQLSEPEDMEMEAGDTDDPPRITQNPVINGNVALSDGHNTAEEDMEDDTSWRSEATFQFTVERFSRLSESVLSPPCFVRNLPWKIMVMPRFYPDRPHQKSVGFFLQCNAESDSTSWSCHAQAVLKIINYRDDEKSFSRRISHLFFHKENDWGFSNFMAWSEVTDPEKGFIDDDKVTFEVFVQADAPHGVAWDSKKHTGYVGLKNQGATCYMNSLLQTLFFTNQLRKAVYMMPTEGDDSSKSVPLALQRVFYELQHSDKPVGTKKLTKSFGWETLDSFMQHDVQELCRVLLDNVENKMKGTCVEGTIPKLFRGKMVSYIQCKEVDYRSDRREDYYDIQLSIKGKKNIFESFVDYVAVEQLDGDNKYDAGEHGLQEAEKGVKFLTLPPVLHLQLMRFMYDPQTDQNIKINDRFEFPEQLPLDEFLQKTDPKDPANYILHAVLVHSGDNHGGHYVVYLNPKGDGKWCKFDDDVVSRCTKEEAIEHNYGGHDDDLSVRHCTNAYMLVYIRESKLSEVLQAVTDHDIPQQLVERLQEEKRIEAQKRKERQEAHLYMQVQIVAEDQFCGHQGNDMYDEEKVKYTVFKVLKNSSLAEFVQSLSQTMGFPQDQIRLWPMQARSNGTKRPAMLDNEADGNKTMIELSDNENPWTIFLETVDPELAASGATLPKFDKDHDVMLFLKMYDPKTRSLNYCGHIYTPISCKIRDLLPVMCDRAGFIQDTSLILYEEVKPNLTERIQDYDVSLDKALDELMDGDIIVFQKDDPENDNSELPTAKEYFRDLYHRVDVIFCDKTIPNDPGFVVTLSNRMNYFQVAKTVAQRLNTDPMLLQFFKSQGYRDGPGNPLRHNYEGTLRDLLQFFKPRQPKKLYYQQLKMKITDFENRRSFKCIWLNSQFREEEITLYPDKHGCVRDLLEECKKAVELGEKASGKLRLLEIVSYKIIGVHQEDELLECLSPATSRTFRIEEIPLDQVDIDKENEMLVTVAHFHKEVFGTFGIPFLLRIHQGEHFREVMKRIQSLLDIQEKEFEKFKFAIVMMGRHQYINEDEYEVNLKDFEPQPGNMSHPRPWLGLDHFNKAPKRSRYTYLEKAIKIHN",
  "assay": "Enzymatic assay to determine IC50 of USP7 inhibitors (Ubiquitin-Rhodamine 110 cleavage)",
  "format": "biochemical",
  "conditions": "full-length USP7 0.5-1.0 nM, 0.5 μM Ubiquitin-Rhodamine 110, 30-60 min at 25° C.",
  "procedure": "Enzymatic Assay to Determine IC50 of USP7 Inhibitors\nThe IC50 is the concentration of an inhibitor where the measured enzyme activity is reduced by half. In the case of USP7 deubiquitinase, the IC50 of an USP7 inhibitor is the molar concentration of the compound that inhibits 50% of the activity observed in a USP7-mediated-ubiquitin-rhodamine cleavage assay. For the inhibitors disclosed herein, their potency was measured using the following method.\nA 45 μl reaction volume containing full-length USP7 (0.5-1.0 nM) in 50 mM HEPES pH 7.5, 150 mM NaCl, 2 mM DTT, 1 mg/ml BSA and 0.05% Tween20 was assembled in wells of 96 well half area black flat bottom plates. Test compounds were first dissolved to 30 mM stocks in DMSO and subsequently introduced to enzyme 15 min after USP7 incubation with DTT at room temperature. The enzymatic reaction was started by adding 0.5 μM Ubiquitin-Rhodamine 110 (final concentration) and allowed to proceed for 30-60 min at 25° C., 250 RPM shaking before Rhodamine fluorescence (485 nm excitation/535 nm emission) was measured using Tecan Spark M10 plate reader. The IC50 values were determined by data fitting to variable slope model four-parameter dose-response curve using GraphPad 7.05.",
  "note": "Structures can show the parent of a compound that is named as a salt.",
  "data": [
    {"smiles": "Cc1cc(Cl)cc(-c2ncnn3cc(CN4C(=O)C5C(C4=O)C5(C)C)cc23)c1O[C@@H]1CNC[C@@H]1F", "note": "(stereo partly drawn) [Example 14, 3-((4-(5-chloro-2-(((3R,4S)-4-fluoropyrrolidin-3-yl)oxy)-3-methylphenyl)pyrrolo[2,1-f][1,2,4]triazin-6-yl)methyl)-6,6-dimethyl-3-azabicyclo[3.1.0]hexane-2,4-dione hydrochloride]", "values": [
      {"measurement": "IC50", "result": "< 500", "unit": "nM"}
    ]},
    {"smiles": "CC1(C)C2C(=O)N(Cc3cc4c(-c5cc(C(F)(F)F)cc6ccn(CC7(F)CCNCC7)c56)ncnn4c3)C(=O)C21", "note": "(stereo not drawn) [Example 22, 3-((4-(1-((4-fluoropiperidin-4-yl)methyl)-5-(trifluoromethyl)-1H-indol-7-yl)pyrrolo[2,1-f][1,2,4]triazin-6-yl)methyl)-6,6-dimethyl-3-azabicyclo[3.1.0]hexane-2,4-dione hydrochloride]", "values": [
      {"measurement": "IC50", "result": "< 500", "unit": "nM"}
    ]},
    {"smiles": "CC1(C)C2C(=O)N(Cc3cc4c(-c5cc(Cl)cc6ccn(CC7CNCCO7)c56)ncnn4c3)C(=O)C21", "note": "(stereo not drawn) [Example 24, 3-((4-(5-chloro-1-(morpholin-2-ylmethyl)-1H-indol-7-yl)pyrrolo[2,1-f][1,2,4]triazin-6-yl)methyl)-6,6-dimethyl-3-azabicyclo[3.1.0]hexane-2,4-dione dihydrochloride]", "values": [
      {"measurement": "IC50", "result": "< 500", "unit": "nM"}
    ]},
    {"smiles": "CC1(C)C2C(=O)N(Cc3cc4c(-c5cc(Cl)cc6ccn(CC7(C#N)CCNCC7)c56)ncnn4c3)C(=O)C21", "note": "(stereo not drawn) [Example 25, 4-((5-chloro-7-(6-((6,6-dimethyl-2,4-dioxo-3-azabicyclo[3.1.0]hexan-3-yl)methyl)pyrrolo[2,1-f][1,2,4]triazin-4-yl)-1H-indol-1-yl)methyl)piperidine-4-carbonitrile 2,2,2-trifluoroacetate]", "values": [
      {"measurement": "IC50", "result": "< 500", "unit": "nM"}
    ]},
    {"smiles": "Cc1cc(Cl)cc(-c2ncnn3cc(CN4C(=O)C5C(C4=O)C5(C)C)cc23)c1CC1CNC[C@H](C)O1", "note": "(stereo partly drawn) [Example 27, 3-((4-(5-chloro-3-methyl-2-(((6S)-6-methylmorpholin-2-yl)methyl)phenyl)pyrrolo[2,1-f][1,2,4]triazin-6-yl)methyl)-6,6-dimethyl-3-azabicyclo[3.1.0]hexane-2,4-dione dihydrochloride]", "values": [
      {"measurement": "IC50", "result": "< 500", "unit": "nM"}
    ]},
    {"smiles": "CC1(C)C2C(=O)N(Cc3cc4c(-c5cc(Cl)cc6ccn(CC7(F)CCCNC7)c56)ncnn4c3)C(=O)C21", "note": "(stereo not drawn) [Example 29, 3-((4-(5-chloro-1-((3-fluoropiperidin-3-yl)methyl)-1H-indol-7-yl)pyrrolo[2,1-f][1,2,4]triazin-6-yl)methyl)-6,6-dimethyl-3-azabicyclo[3.1.0]hexane-2,4-dione hydrochloride]", "values": [
      {"measurement": "IC50", "result": "< 500", "unit": "nM"}
    ]},
    {"smiles": "CC1(C)C2C(=O)N(Cc3cc4c(-c5cc([N+](=O)[O-])cc6ccn(C[C@@H]7CNCCO7)c56)ncnn4c3)C(=O)C21", "note": "(stereo partly drawn) [Example 32, 6,6-dimethyl-3-((4-(1-(((S)-morpholin-2-yl)methyl)-5-nitro-1H-indol-7-yl)pyrrolo[2,1-f][1,2,4]triazin-6-yl)methyl)-3-azabicyclo[3.1.0]hexane-2,4-dione 2,2,2-trifluoroacetate]", "values": [
      {"measurement": "IC50", "result": "< 500", "unit": "nM"}
    ]},
    {"smiles": "CC1(C)C2C(=O)N(Cc3cc4c(-c5cc(C(F)(F)F)cc6ccn(C[C@@H]7CNCCO7)c56)ncnn4c3)C(=O)C21", "note": "(stereo partly drawn) [Example 35, 6,6-dimethyl-3-((4-(1-(((S)-morpholin-2-yl)methyl)-5-(trifluoromethyl)-1H-indol-7-yl)pyrrolo[2,1-f][1,2,4]triazin-6-yl)methyl)-3-azabicyclo[3.1.0]hexane-2,4-dione 2,2,2-trifluoroacetate]", "values": [
      {"measurement": "IC50", "result": "< 500", "unit": "nM"}
    ]},
    {"smiles": "O=C1CNC(=O)N1Cc1cc2c(-c3cc(Cl)cc4ccn(C[C@@H]5CNCCO5)c34)ncnn2c1", "note": "[Example 37, (S)-3-((4-(5-chloro-1-(morpholin-2-ylmethyl)-1H-indol-7-yl)pyrrolo[2,1-f][1,2,4]triazin-6-yl)methyl)imidazolidine-2,4-dione hydrochloride]", "values": [
      {"measurement": "IC50", "result": "< 500", "unit": "nM"}
    ]},
    {"smiles": "Cn1ccc(=O)n(Cc2cc3c(-c4cc(Cl)cc5ccn(C[C@@H]6CNCCO6)c45)ncnn3c2)c1=O", "note": "[Example 39, (S)-3-((4-(5-chloro-1-(morpholin-2-ylmethyl)-1H-indol-7-yl)pyrrolo[2,1-f][1,2,4]triazin-6-yl)methyl)-1-methylpyrimidine-2,4(1H,3H)-dione hydrochloride]", "values": [
      {"measurement": "IC50", "result": "< 500", "unit": "nM"}
    ]},
    {"smiles": "CC1(C)C2C(=O)N(Cc3cc4c(-c5cc(Cl)cc6cnn(C[C@@H]7CNCCO7)c56)ncnn4c3)C(=O)C21", "note": "(stereo partly drawn) [Example 44, 3-((4-(5-chloro-1-(((S)-morpholin-2-yl)methyl)-1H-indazol-7-yl)pyrrolo[2,1-f][1,2,4]triazin-6-yl)methyl)-6,6-dimethyl-3-azabicyclo[3.1.0]hexane-2,4-dione 2,2,2-trifluoroacetate]", "values": [
      {"measurement": "IC50", "result": "< 500", "unit": "nM"}
    ]},
    {"smiles": "CC1(C)C2C(=O)N(Cc3cc4c(-c5cc(Cl)cc6c(F)nn(C[C@@H]7CNCCO7)c56)ncnn4c3)C(=O)C21", "note": "(stereo partly drawn) [Example 45, 3-((4-(5-chloro-3-fluoro-1-(((S)-morpholin-2-yl)methyl)-1H-indazol-7-yl)pyrrolo[2,1-f][1,2,4]triazin-6-yl)methyl)-6,6-dimethyl-3-azabicyclo[3.1.0]hexane-2,4-dione hydrochloride]", "values": [
      {"measurement": "IC50", "result": "< 500", "unit": "nM"}
    ]},
    {"smiles": "Cc1cc(Cl)cc(-c2ncnn3cc(CN4C(=O)C5C(C4=O)C5(C)C)cc23)c1OCC1CCNCC1", "note": "(stereo not drawn) [Example 48, 3-((4-(5-chloro-3-methyl-2-(piperidin-4-ylmethoxy)phenyl)pyrrolo[2,1-f][1,2,4]triazin-6-yl)methyl)-6,6-dimethyl-3-azabicyclo[3.1.0]hexane-2,4-dione hydrochloride]", "values": [
      {"measurement": "IC50", "result": "< 500", "unit": "nM"}
    ]},
    {"smiles": "Cc1cc(Cl)cc(-c2ncnn3cc(CN4C(=O)C5C(C4=O)C5(C)C)cc23)c1CC1CN[C@@H](C)CO1", "note": "(stereo partly drawn) [Example 49, 3-((4-(5-chloro-3-methyl-2-(((5S)-5-methylmorpholin-2-yl)methyl)phenyl)pyrrolo[2,1-f][1,2,4]triazin-6-yl)methyl)-6,6-dimethyl-3-azabicyclo[3.1.0]hexane-2,4-dione hydrochloride]", "values": [
      {"measurement": "IC50", "result": "< 500", "unit": "nM"}
    ]},
    {"smiles": "CC1(C)C2C(=O)N(Cc3cc4c(-c5cc(Cl)cc6c5N(C5CCNC5)CCO6)ncnn4c3)C(=O)C21", "note": "(stereo not drawn) [Example 55, 3-((4-(7-chloro-4-(pyrrolidin-3-yl)-3,4-dihydro-2H-benzo[b][1,4]oxazin-5-yl)pyrrolo[2,1-f][1,2,4]triazin-6-yl)methyl)-6,6-dimethyl-3-azabicyclo[3.1.0]hexane-2,4-dione hydrochloride]", "values": [
      {"measurement": "IC50", "result": "< 500", "unit": "nM"}
    ]},
    {"smiles": "Cc1cc(Cl)cc(-c2ncnn3cc(CN4C(=O)C5C(C4=O)C5(C)C)cc23)c1OCC1(C)CCNCC1", "note": "(stereo not drawn) [Example 58, 3-((4-(5-chloro-3-methyl-2-((4-methylpiperidin-4-yl)methoxy)phenyl)pyrrolo[2,1-f][1,2,4]triazin-6-yl)methyl)-6,6-dimethyl-3-azabicyclo[3.1.0]hexane-2,4-dione hydrochloride]", "values": [
      {"measurement": "IC50", "result": "< 500", "unit": "nM"}
    ]},
    {"smiles": "Cc1cc(Cl)cc(-c2ncnn3cc(Cn4c(=O)ccn(C)c4=O)cc23)c1CC1CNC[C@H](C)O1", "note": "(stereo partly drawn) [Example 59, 3-((4-(5-chloro-3-methyl-2-(((6S)-6-methylmorpholin-2-yl)methyl)phenyl)pyrrolo[2,1-f][1,2,4]triazin-6-yl)methyl)-1-methylpyrimidine-2,4(1H,3H)-dione hydrochloride]", "values": [
      {"measurement": "IC50", "result": "< 500", "unit": "nM"}
    ]},
    {"smiles": "Cn1ccc(=O)n(Cc2cc3c(-c4cc(Cl)cc5ccn(CC6(F)CCNCC6)c45)ncnn3c2)c1=O", "note": "[Example 61, 3-((4-(5-chloro-1-((4-fluoropiperidin-4-yl)methyl)-1H-indol-7-yl)pyrrolo[2,1-f][1,2,4]triazin-6-yl)methyl)-1-methylpyrimidine-2,4(1H,3H)-dione hydrochloride]", "values": [
      {"measurement": "IC50", "result": "< 500", "unit": "nM"}
    ]}
  ]
}
